Values after ≈ are worked out from the molar mass of the structure shown. Values joined by “and” are separate entries in the source; they are usually repeats but may differ in a detail not shown here. Equal entries are not always repeated. Structures can show the parent of a compound that is named as a salt. Where two headings read alike, the source gives them in different places.
Legend:
[1] = Surface tension, pendant drop tensiometer (cmc, γc); type: physicochemical; details: for cmc: from surface tension
Description: Surface tension was measured using a custom-built pendant drop tensiometer, as described in detail in reference. Briefly, a droplet of surfactant solution is formed at the tip of a straight-cut Teflon tube. The image of the droplet is captured using a webcam, and its shape is analyzed by fitting the droplet profile to the Laplace–Young equation [14], To minimize evaporation, all measurements were conducted in a saturated humid atmosphere. The use of this technique is especially well-suited for cationic surfactants because it helps to mitigate complications related to surface adsorption. Critical micelle concentration values (cmc) were determined by finding the intersection of the linear fits before and after the break in the curves.

[2] = tested on: Candida albicans ATCC 90028; assay: MIC broth microdilution; type: cell-based; details: C. albicans; for MIC: Candida albicans, ATCC90028, read-out: MIC
How it was run: (§1)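 Broth microdilution in RPMI 1640, twofold compound dilutions 256–2 μg/mL, final inoculum 7.5 × 10^5 CFU/mL from Sabouraud-grown colonies. MIC read by turbidity and confirmed by 0.015% resazurin, 3 h at 30 °C, blue-to-pink colour change.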

Candida auris ATCC 21092 = assay: MIC broth microdilution; type: cell-based; details: C. auris; for MIC: Candidozyma auris, ATCC21092, read-out: MIC
How it was run: as §1

[3] = tested on: Candida glabrata ATCC 66032; assay: MIC broth microdilution; type: cell-based
How it was run: as §1

[4] = tested on: Candida parapsilosis ATCC 22019; assay: MIC broth microdilution; type: cell-based; details: C. parapsilosis; for MIC: Lodderomyces parapsilosis, ATCC22019, read-out: MIC
How it was run: as §1

[5] = tested on: Candida rugosa ATCC 10571; assay: MIC broth microdilution; type: cell-based; details: C. rugosa; for MIC: Diutina rugosa, ATCC10571, read-out: MIC
How it was run: as §1

[6] = tested on: Candida tropicalis ATCC 7349; assay: MIC broth microdilution; type: cell-based; details: C. tropicalis; for MIC: Candida tropicalis, ATCC7349, read-out: MIC
How it was run: as §1

[7] = tested on: Cyberlindnera jadinii ATCC 60459 (C. jardinii); assay: MIC broth microdilution; type: cell-based; details: for Selectivity Index (HC50/MIC): C. jardini; for MIC: Williopsis jadinii
How it was run: as §1

erythrocytes = assay: Hemolytic activity assay; type: cell-based; details: rabbit erythrocytes
How it was run: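 Rabbit erythrocytes washed in PBS pH 7.4, exposed to varying surfactant concentrations in PBS for 10 min at room temperature. Hemolysis read as supernatant absorbance at 540 nm relative to distilled-water 100% lysis control; HC50 taken from concentration–response curves.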

Daphnia magna = assay: Acute toxicity, immobilization test; type: in vivo; details: Daphnia magna, 48 h
How it was run: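 Neonates under 24 h old exposed in the dark at 20 °C, pH 8.0, Ca:Mg 4:1, hardness 250 mg/L as CaCO3, to ten geometric concentrations, 4 replicates of 5 animals. Immobility (no swimming after 15 s gentle stimulation) scored at 48 h; immobilization plotted against concentration on probability–log scale.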

Vibrio fischeri = assay: Luminescence reduction test; type: cell-based; details: Aliivibrio fischeri, 0.25 h; Vibrio fischeri bioluminescence, 15 min of exposure; 95% confidence intervals in parentheses
Description: Ecotoxicological assessment of cationic surfactants was conducted using the Vibrio fischeri luminescent bioassay. This method relies on the measurement of decreased bioluminescent output from marine bacteria following contact with potentially toxic substances. Regression analysis was used to determine the concentration of the compound that caused a 50% reduction (EC50) in the amount of light emitted by the bacteria. The stated toxicity statistics given are based on the bacteria being exposed to the ionic liquid solution for 15 min at 15 °C.

[8] = set-up: method as in PMID 36559096; details: conductivity values; cited from earlier work
[9] = Nakaseomyces glabratus, ATCC66032, 24 h, C. glabrata, RPMI 1640, 24 h, 30 °C, read-out: MIC
[10] = Nakaseomyces glabratus, ATCC66032, C. glabrata, value in parentheses, read-out: MIC
[11] = ATCC60459, C. jardinii, value in parentheses, read-out: MIC
[12] = ATCC60459, C. jardinii, RPMI 1640, 24 h, 30 °C, read-out: MIC

SMILES	γc (surface tension at the cmc) [1]	cmc [1]	Selectivity Index (HC50/MIC) ([2]; Table S2)	MIC ([2]; RPMI 1640, 24 h, 30 °C)	MIC ([2]; value in parentheses)	Selectivity Index (HC50/MIC) (Candida auris ATCC 21092; Table S2)	MIC (Candida auris ATCC 21092; RPMI 1640, 24 h, 30 °C)	MIC (Candida auris ATCC 21092; value in parentheses)	Selectivity Index (HC50/MIC) ([3]; C. glabrata, Table S2)	MIC [3, 9]	MIC [3, 10]	Selectivity Index (HC50/MIC) ([4]; Table S2)	MIC ([4]; RPMI 1640, 24 h, 30 °C)	MIC ([4]; value in parentheses)	Selectivity Index (HC50/MIC) ([5]; Table S2)	MIC ([5]; RPMI 1640, 24 h, 30 °C)	MIC ([5]; value in parentheses)	Selectivity Index (HC50/MIC) ([6]; Table S2)	MIC ([6]; RPMI 1640, 24 h, 30 °C)	MIC ([6]; value in parentheses)	also measured
CCCCCCCCCCCCNC(=O)C(CCCNC(=N)N)NC(=O)C(N)Cc1ccccc1 (centres unmarked) [PANHC12, phenylalanine-arginine dodecyl amide dihydrochloride]	30.4 ± 2.6 mNm^−1	1.5 mM	0.8	32 mg/L	56 µM	0.4	64 mg/L	112 µM	0.8	32 mg/L	56 µM	0.8	32 mg/L	56 µM	0.4	64 mg/L	112 µM	0.8	32 mg/L	56 µM	Selectivity Index (HC50/MIC) ([2]; Table S1): 0.8; Selectivity Index (HC50/MIC) (Candida auris ATCC 21092; Table S1): 0.4; Selectivity Index (HC50/MIC) ([3]; C. glabrata, Table S1): 0.8; Selectivity Index (HC50/MIC) ([4]; Table S1): 0.8; Selectivity Index (HC50/MIC) ([5]; Table S1): 0.4; Selectivity Index (HC50/MIC) ([6]; Table S1): 0.8; Selectivity Index (HC50/MIC) ([7]; Table S1): 0.8; Selectivity Index (HC50/MIC) ([7]; Table S2): 0.8; MIC ([7]; ATCC60459, 24 h): 32 µg/mL and 88 µM; MIC [7, 11]: 56 µM; HC50 (erythrocytes; 10 min, room temperature): 26 ± 1.2 µg/mL; HC50 (erythrocytes; value in parentheses): 46 ± 2.2 µM; EC50 (Daphnia magna): 3.4 mg/L; EC50 (Vibrio fischeri): 3 mg/L; cmc Cond [8]: 2.2 mM
CCCCCCCCCCCCCCNC(=O)C(CCCNC(=N)N)NC(=O)C(N)Cc1ccccc1 (centres unmarked) [PANHC14]	28.7 ± 1.5 mNm^−1	0.35 mM	1.2	16 mg/L	27 µM	1.2	16 mg/L	27 µM	2.4	8 mg/L	14 µM	2.4	8 mg/L	14 µM	1.2	16 mg/L	27 µM	2.4	8 mg/L	14 µM	Selectivity Index (HC50/MIC) ([7]; Table S2): 1.2; MIC [7, 12]: 16 mg/L; MIC [7, 11]: 27 µM; HC50 (erythrocytes; 10 min, room temperature): 20 ± 0.5 µg/mL; HC50 (erythrocytes; value in parentheses): 34 ± 0.8 µM; EC50 (Daphnia magna): 0.71 mg/L (≈ 1.37 µM); EC50 (Vibrio fischeri): 1.8 mg/L (≈ 3.48 µM); cmc Cond [8]: 0.7 mM
CCCCCCCCCCNC(=O)C(CCCNC(=N)N)NC(=O)C(N)Cc1c[nH]c2ccccc12 (centres unmarked) [TANHC10]	30.6 ± 2.0 mNm^−1	5.4 mM	1.15	64 mg/L	112 µM	0.6	128 mg/L	224 µM	1.15	64 mg/L	112 µM	1.15	64 mg/L	112 µM	18	4 mg/L	7 µM	1.15	64 mg/L	112 µM	Selectivity Index (HC50/MIC) ([7]; Table S2): 1.15; MIC [7, 12]: 64 mg/L; MIC [7, 11]: 112 µM; HC50 (erythrocytes; 10 min, room temperature): 74 ± 2.8 µg/mL; HC50 (erythrocytes; value in parentheses): 129 ± 5 µM; EC50 (Daphnia magna): 9.7 mg/L (≈ 19.4 µM); EC50 (Vibrio fischeri): 2.2 mg/L (≈ 4.4 µM); cmc Cond [8]: 1.7 mM
CCCCCCCCCCCCNC(=O)C(CCCNC(=N)N)NC(=O)C(N)Cc1c[nH]c2ccccc12 (centres unmarked) [TANHC12]	28.7 ± 3.3 mNm^−1	2.5 mM	0.25	64 mg/L	108 µM	0.1	128 mg/L	216 µM	0.25	128 mg/L	108 µM	0.5	32 mg/L	54 µM	4	4 mg/L	7 µM	0.5	32 mg/L	54 µM	Selectivity Index (HC50/MIC) ([2]; Table S1): 0.25; Selectivity Index (HC50/MIC) (Candida auris ATCC 21092; Table S1): 0.12; MIC ([3]; C. glabrata, RPMI 1640, 24 h, 30 °C): 64 mg/L; Selectivity Index (HC50/MIC) ([3]; C. glabrata, Table S1): 0.12; MIC ([3]; Nakaseomyces glabratus, ATCC66032, 24 h, C. glabrata, value in parentheses, read-out: MIC): 216 µM; Selectivity Index (HC50/MIC) ([4]; Table S1): 0.5; Selectivity Index (HC50/MIC) ([5]; Table S1): 3.8; Selectivity Index (HC50/MIC) ([6]; Table S1): 0.5; Selectivity Index (HC50/MIC) ([7]; Table S1): 0.25; Selectivity Index (HC50/MIC) ([7]; Table S2): 0.25; MIC ([7]; ATCC60459): 108 µM; MIC ([7]; ATCC60459, 24 h): 64 mg/L; HC50 (erythrocytes; 10 min, room temperature): 16 ± 0.3 µg/mL; HC50 (erythrocytes; value in parentheses): 27 ± 0.6 µM; EC50 (Daphnia magna): 3 mg/L (≈ 5.68 µM); EC50 (Vibrio fischeri): 1.9 mg/L (≈ 3.6 µM); cmc Cond [8]: 0.6 mM

Source: article PMC12452389, “Arginine-Derived Cationic Surfactants Containing Phenylalanine and Tryptophan: Evaluation of Antifungal Activity, Biofilm Eradication, Cytotoxicity, and Ecotoxicity” (Journal of Xenobiotics, 2025)
